Values of other authors, collected in patent US11013844B2, “Treatment device for plasma virus inactivation” (City of Hope, priority 2014, dated 2021).

Settings: within 6 days

methylene blue drained through urine: 74% | part drained through urine in the original form (the other is white methylene blue): 22%
Compound: CN(C)c1ccc2nc3ccc(N(C)C)cc3[s+]c2c1.[Cl-] [methylene blue, 3,7-bis(dimethylamino)phenothiazin-5-ium chloride]
